Experimental data published in ChEMBL document CHEMBL3045841, “Novel diamide insecticides: sulfoximines, sulfonimidamides and other new sulfonimidoyl derivatives” (Bioorg Med Chem Lett, 2012).
Values after ≈ are worked out from the molar mass of the structure shown. Active and inactive are the calls of the source. The rule behind the calls is not given here.

What was measured:
Myzus persicae = assay: Insecticidal activity against Myzus persicae (green peach aphid) assessed as mortality by greenhouse assay; assay type: functional
Plutella xylostella = assay: Insecticidal activity against Plutella xylostella (diamondback moth) assessed as mortality by greenhouse assay; assay type: functional
Spodoptera littoralis [1] = assay: Insecticidal activity against Spodoptera littoralis assessed as mortality by greenhouse assay; assay type: functional
[2] = Lipophilicity, log P of the compound; assay type: physicochemical; settings: octanol/water
[3] = Aqueous solubility of the compound at pH 7; assay type: physicochemical; settings: buffer
Spodoptera frugiperda = assay: Insecticidal activity against Spodoptera frugiperda (fall armyworm) in maize assessed as control of pests measured after 12 to 22 days of seed application; assay type: functional, organism-based
Agrotis ipsilon = assay: Insecticidal activity against Agrotis ipsilon in maize assessed as control of pests measured after 12 to 22 days of seed application; assay type: functional, organism-based
Liriomyza trifolii = assay: Insecticidal activity against Liriomyza trifolii in kidney beans assessed as control of pests measured after 12 to 22 days of seed application; assay type: functional, organism-based
Phyllotreta striolata = assay: Insecticidal activity against Phyllotreta striolata in radish assessed as control of pests measured after 12 to 22 days of seed application; assay type: functional, organism-based
Spodoptera littoralis [4] = assay: Insecticidal activity against Spodoptera littoralis in maize assessed as control of pests measured after 12 to 22 days of seed application; assay type: functional, organism-based

SMILES | EC80 (Myzus persicae) [µg/mL] | EC80 (Plutella xylostella) [µg/mL] | EC80 (Spodoptera littoralis [1]) [µg/mL] | logP [2] | solubility [3] [ppm] | Activity (Spodoptera frugiperda) | Activity (Agrotis ipsilon) | Activity (Liriomyza trifolii) | Activity (Phyllotreta striolata) | Activity (Spodoptera littoralis [4])
CN=S(=O)(CC(C)NC(=O)c1cc(C#N)cc(C)c1NC(=O)c1cc(Br)nn1-c1ncccc1Cl)NOC (centres undefined) | > 200 | 3.1 (≈ 4.97 µM) | 50 (≈ 80.1 µM) | 1.8 | 17 |  |  |  |  | 
CNC(=O)c1cc(Cl)cc(C)c1NC(=O)c1cc(Br)nn1-c1ncccc1Cl [CHLORANTRANILIPROLE] | 50 (≈ 103 µM) | 0.8 (≈ 1.66 µM) | 0.8 (≈ 1.66 µM) | 2.8 | 1 |  |  |  |  | 
CNS(=N)(=O)CC(C)NC(=O)c1cc(C#N)cc(C)c1NC(=O)c1cc(Br)nn1-c1ncccc1Cl (centres undefined) | 200 (≈ 337 µM) | 12.5 (≈ 21 µM) | 50 (≈ 84.2 µM) | 1.1 | 96 |  |  |  |  | 
Cc1cc(C(F)(C(F)(F)F)C(F)(F)F)ccc1NC(=O)c1cccc(I)c1C(=O)NC(C)(C)CS(C)(=O)=O [FLUBENDIAMIDE] | > 200 | 3.1 (≈ 4.54 µM) | 3.1 (≈ 4.54 µM) |  | 0.3 |  |  |  |  | 
Cc1cc(C#N)cc(C(=O)NC(C)(C)CS(C)(=N)=O)c1NC(=O)c1cc(OCC(F)(F)F)nn1-c1ncccc1Cl (centres undefined) | 3.1 (≈ 5.07 µM) | 0.2 (≈ 0.327 µM) | 0.8 (≈ 1.31 µM) | 1.6 | 361 |  |  |  |  | 
Cc1cc(C#N)cc(C(=O)NC(C)(C)CS(C)(=O)=N[N+](=O)[O-])c1NC(=O)c1cc(Br)nn1-c1ncccc1Cl (centres undefined) | 200 (≈ 314 µM) | 0.8 (≈ 1.25 µM) | 12.5 (≈ 19.6 µM) | 1.9 | 29 |  |  |  |  | 
Cc1cc(Cl)cc(C(=O)NC(C)(C)CS(C)(=N)=O)c1NC(=O)c1cc(OCC(F)(F)F)nn1-c1ncccc1Cl (centres undefined) | 12.5 (≈ 20.1 µM) | 0.2 (≈ 0.322 µM) | 0.8 (≈ 1.29 µM) | 2.4 | 295 | Active | Active | Active | Active | Active
CNS(=N)(=O)CC(C)NC(=O)c1cc(Cl)cc(C)c1NC(=O)c1cc(Br)nn1-c1ncccc1Cl (centres undefined) | 200 (≈ 331 µM) | 3.1 (≈ 5.14 µM) | 12.5 (≈ 20.7 µM) | 2 | 95 |  |  |  |  | 
Cc1cc(C#N)cc(C(=O)NC(C)(C)CS(C)(=N)=O)c1NC(=O)c1cc(Br)nn1-c1ncccc1Cl (centres undefined) | 12.5 (≈ 21.1 µM) | 0.8 (≈ 1.35 µM) | 0.8 (≈ 1.35 µM) | 1.1 | 42 |  |  |  |  | 
Cc1cc(C#N)cc(C(=O)NC(C)(C)CS(C)(=O)=NC#N)c1NC(=O)c1cc(Br)nn1-c1ncccc1Cl (centres undefined) | 200 (≈ 324 µM) | 0.8 (≈ 1.29 µM) | 50 (≈ 80.9 µM) | 1.7 | 59 |  |  |  |  | 
Cc1cc(Cl)cc(C(=O)NC(C)(C)CS(C)(=O)=NC#N)c1NC(=O)c1cc(C(F)(F)F)nn1-c1ncccc1Cl (centres undefined) | 200 (≈ 324 µM) | 0.8 (≈ 1.3 µM) | 0.8 (≈ 1.3 µM) | 2.9 | 14 |  |  |  |  | 
Cc1cc(Cl)cc(C(=O)NC(C)(C)CS(C)(=N)=O)c1NC(=O)c1cc(C(F)(F)F)nn1-c1ncccc1Cl (centres undefined) | 50 (≈ 84.5 µM) | 0.8 (≈ 1.35 µM) | 0.8 (≈ 1.35 µM) | 2.4 | 196 | Active | Active | Active | Active | Active
CN=S(=O)(CC(C)NC(=O)c1cc(C#N)cc(C)c1NC(=O)c1cc(Br)nn1-c1ncccc1Cl)NN(C)C (centres undefined) | 12.5 (≈ 19.6 µM) | 12.5 (≈ 19.6 µM) | 50 (≈ 78.5 µM) | 2.1 | 48 |  |  |  |  | 
CNC(=O)c1cc(C#N)cc(C)c1NC(=O)c1cc(Br)nn1-c1ncccc1Cl [CYANTRANILIPROLE] | 12.5 (≈ 26.4 µM) | 0.8 (≈ 1.69 µM) | 3.1 (≈ 6.54 µM) | 1.9 | 14 |  |  |  |  | 
